Experimental data published in patent US20100055113A1, “CELLULAR RECEPTOR FOR ANTIPROLIFERATIVE FACTOR” (The University of Maryland, Baltimore, priority 2006, published 2010).
Ends that are not written are not given here. glycan = not defined here

T1: CKAP4/p63 (Homo sapiens, UniProt Q07065)
T1 construct: endogenous in cells; host or cells: explanted primary normal human bladder epithelial cells
T1 sequence (Q07065 1-602): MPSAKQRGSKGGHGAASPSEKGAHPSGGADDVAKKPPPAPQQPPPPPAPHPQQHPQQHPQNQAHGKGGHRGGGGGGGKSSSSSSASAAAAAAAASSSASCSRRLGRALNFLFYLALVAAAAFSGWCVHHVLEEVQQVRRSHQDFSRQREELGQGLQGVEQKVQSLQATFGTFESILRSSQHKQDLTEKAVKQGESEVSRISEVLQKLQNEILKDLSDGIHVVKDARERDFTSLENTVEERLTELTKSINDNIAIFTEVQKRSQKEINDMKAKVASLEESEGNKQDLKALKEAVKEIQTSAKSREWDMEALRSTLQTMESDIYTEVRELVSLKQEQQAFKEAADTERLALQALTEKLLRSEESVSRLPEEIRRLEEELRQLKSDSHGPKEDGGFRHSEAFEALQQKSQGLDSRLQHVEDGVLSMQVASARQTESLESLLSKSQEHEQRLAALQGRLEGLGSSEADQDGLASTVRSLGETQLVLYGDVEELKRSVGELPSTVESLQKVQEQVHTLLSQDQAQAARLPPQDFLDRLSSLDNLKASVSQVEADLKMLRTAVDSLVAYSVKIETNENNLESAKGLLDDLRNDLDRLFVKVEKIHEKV

T2: cytoskeleton-associated protein 4/p63 (CKAP4/p63) (human, UniProt Q07065 1-602)
T2 sequence: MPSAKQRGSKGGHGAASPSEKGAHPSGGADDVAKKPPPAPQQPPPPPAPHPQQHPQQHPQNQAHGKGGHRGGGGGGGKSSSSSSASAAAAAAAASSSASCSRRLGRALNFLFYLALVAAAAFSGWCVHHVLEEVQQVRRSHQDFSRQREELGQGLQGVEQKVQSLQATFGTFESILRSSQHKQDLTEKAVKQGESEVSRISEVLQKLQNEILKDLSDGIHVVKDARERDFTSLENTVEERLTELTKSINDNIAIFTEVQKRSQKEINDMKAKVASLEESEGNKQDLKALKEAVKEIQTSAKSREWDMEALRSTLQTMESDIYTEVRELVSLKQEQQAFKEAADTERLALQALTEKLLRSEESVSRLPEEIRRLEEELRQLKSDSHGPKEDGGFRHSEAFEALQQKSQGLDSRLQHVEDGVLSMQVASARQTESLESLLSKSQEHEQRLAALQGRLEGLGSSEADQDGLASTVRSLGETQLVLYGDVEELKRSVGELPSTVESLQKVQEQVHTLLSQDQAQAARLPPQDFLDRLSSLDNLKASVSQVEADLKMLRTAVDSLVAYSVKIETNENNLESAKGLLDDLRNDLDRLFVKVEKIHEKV


Experiments:
[1] = system: normal human bladder epithelial cells; assay: 3H-thymidine incorporation cell proliferation assay; assay type: cell-based
Method: (§1) Cell proliferation was measured by ^3H-thymidine incorporation into explanted normal human bladder epithelial cells, as previously described (Keay et al., 2004; Keay et al., 1996). Briefly, purified lyophilized synthetic APF was resuspended in acetonitrile/distilled water (1:1), diluted in serum-free MEM (containing only glutamine and antibiotics/antimycotics), and applied to the cells; cell controls received acetonitrile/distilled water diluted in serum-free MEM alone. Cells were then incubated at 37° C. in a 5% CO2 atmosphere for 48 hours. The cell contents harvested and methanol-fixed onto glass fiber filter paper, and the amount of radioactivity incorporated determined. Significant inhibition of 3H-thymidine incorporation was defined as a mean decrease in counts per minute of greater than 2 standard deviations from the mean of control cells for each plate.

[2] = system: normal human bladder epithelial cells; settings: bladder epithelial cell proliferation; background statement; cited from earlier work
[3] = system: CKAP4/p63; assay: Western blot of CKAP4/p63 protein expression after siRNA electroporation; assay type: cell-based, human; settings: normal bladder epithelial cells, electroporation with siRNA; FIG. 5A
Method: Solubilized high affinity APF-binding bladder epithelial cell proteins were prepared as described above. Solubilized bladder epithelial cell membrane proteins were prepared by rinsing cells in the culture flasks with ice cold PBS, then scraping the cells into ice-cold extraction buffer (20 mM Tris/HCL, pH 7.4, containing 50 μg/ml PMSF, 2 μg/ml aprotinin, 100 μM tosyl-lysine-chloromethyl-ketone, 1 μM pepstatin A, and 1 μg/ml diisopropylfluorophosphate). The cell slurry was then vortexed until homogeneous, and centrifuged at 4° C. for 10 minutes at 14,000 rpm. Supernatant was removed, and the pelleted membrane fraction was washed once with ice cold extraction buffer, repelleted, and proteins were solubilized using ice cold extraction buffer containing 1% Triton X-100. Solubilized total cell proteins were extracted into ice cold RIPA buffer containing 1.0% NP40, as previously described (Keay et al., 2003). Protein concentration of solubilized protein samples was measured using a Folin reagent-based protein assay kit (Bio-Rad). […]

[4] = target: T1, CKAP4/p63; assay: Sensitivity of siRNA-electroporated normal bladder epithelial cells to APF (thymidine incorporation); assay type: cell-based; settings: electroporation with siRNA, FIG. 5B
Method: as §1, with “plate. Double stranded siRNA corresponding to nucleotides 594-616 ([NT] sense strand; SEQ ID NO:5) of CKAP4/p63 (NM-006825) and a scrambled double stranded negative control siRNA ([NT] sense strand; SEQ ID NO:13) were prepared by preincubating single-stranded sense and anti-sense strands prepared with double A overhangs in serum-free MEM medium at 37° C. for 1 hour. […]” for “plate.”

[5] = target: T2, cytoskeleton-associated protein 4/p63 …; assay: cell-based or functional assay

Molecule	CKAP4/p63 protein expression relative to beta actin [3]	decrease in sensitivity of the cells to APF [4]	also measured
biotinylated synthetic APF: APF biotinylated on the C-terminal lysine residue, carrying Galβ1-3GalNAcα-O-threonine (TVPAAVVVAK)			antiproliferative activity as compared to the parent synthetic GalNAcβ1-3Gal-APF congener ([1]; primary normal bladder epithelial cells): approximately 80%
sialoglycopeptide inhibitor of bladder epithelial cell proliferation; nonapeptide TVPAAVVVA (SEQ ID NO:1) glycosylated on N-terminal threonine [APF, Sialic acid-galactose-N-acetylgalactosamine-threonine-valine-proline-alanine-alanine-valine-valine-valine-alanine]			potency of APF (EC50) [2]: picomolar range
rhodamine-labeled APF: synthetic APF glycopeptide with C-terminal lysine labelled with 5(6)-Rhodamine B isothiocyanate (TVPAAVVVAK)			antiproliferative activity relative to synthetic, unlabeled APF ([1]; normal bladder epithelial cells): approximately 85%
5′-AAUUCUGUAUGCUA CCUGUAGAA-3′ sense strand [scrambled siRNA, reference compound]	little or no change	no decrease in sensitivity to APF	
5′-AACUUUUGAGUCCAUCUUGAGAA-3′ sense strand [double-stranded siRNA for CKAP4/p63]	decreased protein expression of CKAP4/p63 relative to beta actin	approximately one thousand-fold	
T(glycan)VPAAVVVA (reading uncertain; also: exact glycoform not given here) [synthetic APF (antiproliferative factor)]			sensitivity of the cells to APF after siRNA knockdown of CKAP4/p63 (3H-thymidine incorporation) [5]: ~1000 fold
